Read-outs that look alike come from different tables or passages of the source.
Tests used:
CYP2D6 = target: T1, CYP2D6 (Homo sapiens, UniProt P10635); assay: CYP450 enzyme activity inhibition assay, CYP2D6; assay type: in vitro ADME
T1 construct: co-incubated with human liver microsomes; from tissue; host or cells: human liver microsomes
Method: (§1) The purpose of this study was to evaluate the effects of the test compounds on the activities of five isoenzymes (CYP1A2, CYP2C9, CYP2C19, CYP2D6, and CYP3A4) of human liver microsomal cytochrome P450 (CYP) using an in vitro testing system. The specific probe substrates for each CYP450 isoenzyme were co-incubated with human liver microsomes and the test compounds at different concentrations, and reduced nicotinamide adenine dinucleotide phosphate (NADPH) was added to initiate the reaction. After the reactions were completed, the samples were treated, and liquid chromatography-tandem mass spectrometry (LC-MS/MS) was used to quantitatively detect metabolites produced by the specific substrates. The changes in CYP enzyme activities were determined, and the IC50 values were calculated to evaluate the inhibitory potential of the test compounds against each CYP enzyme subtype.

CYP1A2 = target: T2, CYP1A2 (Homo sapiens, UniProt P05177); assay: CYP450 enzyme activity inhibition assay, CYP1A2; assay type: in vitro ADME
T2 construct: co-incubated with human liver microsomes; from tissue; host or cells: human liver microsomes
T2 sequence (P05177 1-516): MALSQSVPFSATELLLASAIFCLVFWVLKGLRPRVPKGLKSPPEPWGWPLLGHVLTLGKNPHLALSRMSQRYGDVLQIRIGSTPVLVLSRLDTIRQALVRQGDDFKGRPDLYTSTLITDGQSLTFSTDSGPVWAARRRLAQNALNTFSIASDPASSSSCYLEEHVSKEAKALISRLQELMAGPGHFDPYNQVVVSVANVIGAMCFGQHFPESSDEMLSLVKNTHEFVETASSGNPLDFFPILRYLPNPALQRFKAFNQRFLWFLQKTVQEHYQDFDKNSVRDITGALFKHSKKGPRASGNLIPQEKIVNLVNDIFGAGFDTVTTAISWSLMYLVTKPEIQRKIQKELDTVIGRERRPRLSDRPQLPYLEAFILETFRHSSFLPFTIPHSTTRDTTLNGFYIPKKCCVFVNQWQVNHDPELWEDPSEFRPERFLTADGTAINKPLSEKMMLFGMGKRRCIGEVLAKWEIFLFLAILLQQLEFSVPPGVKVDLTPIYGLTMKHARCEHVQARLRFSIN
Method: as §1

CYP3A4 = target: T3, CYP3A4 (Homo sapiens, UniProt P08684); assay: CYP450 enzyme activity inhibition assay, CYP3A4; assay type: in vitro ADME
T3 construct: co-incubated with human liver microsomes; from tissue; host or cells: human liver microsomes
T3 sequence (P08684 whole entry): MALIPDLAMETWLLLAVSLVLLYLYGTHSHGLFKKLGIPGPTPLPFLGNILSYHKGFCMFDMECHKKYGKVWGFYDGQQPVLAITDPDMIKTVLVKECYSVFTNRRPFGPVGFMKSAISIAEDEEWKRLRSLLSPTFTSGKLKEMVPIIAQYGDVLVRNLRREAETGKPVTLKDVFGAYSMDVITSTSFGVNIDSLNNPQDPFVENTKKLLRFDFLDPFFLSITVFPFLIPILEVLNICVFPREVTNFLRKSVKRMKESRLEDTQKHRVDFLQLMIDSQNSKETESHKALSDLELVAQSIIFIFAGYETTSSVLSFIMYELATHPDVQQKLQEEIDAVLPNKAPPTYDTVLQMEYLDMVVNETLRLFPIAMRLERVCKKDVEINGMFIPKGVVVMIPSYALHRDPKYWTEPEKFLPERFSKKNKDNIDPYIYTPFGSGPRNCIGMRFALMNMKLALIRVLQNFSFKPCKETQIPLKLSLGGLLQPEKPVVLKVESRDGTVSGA
Method: as §1

[1] = Mouse pharmacokinetic assay; assay type: in vivo, Balb/c mice; conditions: for pharmacokinetic properties: mouse
Method: 4.1. Experimental animals: Male Balb/c mice, about 22 g, 6-8 weeks old, 6 mice/compound. The animals were purchased from CHENGDU DOSSY EXPERIMENTAL ANIMALS CO., LTD.
4.2. Experimental design: On the day of the experiment, the Balb/c mice were randomly grouped according to their body weights. The animals were fasted with water available for 12-14 h one day before the administration, and were fed 4 h after the administration. Table 4. Administration information
Vehicle for intravenous administration: 5% DMA + 5% Solutol + 90% Saline; and vehicle for intragastric administration: 5% DMSO + 95% (20% SBE-β-CD in Saline)
Before and after the administration, 0.03 ml of blood was taken from the orbit under isoflurane anesthesia and placed in an EDTAK2 centrifuge tube. The tube was centrifuged at 5000 rpm at 4°C for 10 min, and plasma was collected. The blood collection time points for the intravenous administration group and intragastric administration group were as follows: 0, 2 min, 5 min, 15 min, 30 min, 1 h, 2 h, 4 h, and 7 h. Before analysis and detection, all samples were stored at - 80°C. Table 5. Pharmacokinetic parameters of test compounds in mouse plasma

CYP2C9 = target: T4, CYP2C9 (Homo sapiens, UniProt P11712); assay: CYP450 enzyme activity inhibition assay, CYP2C9; assay type: in vitro ADME
T4 construct: co-incubated with human liver microsomes; from tissue; host or cells: human liver microsomes
T4 sequence (P11712 whole entry): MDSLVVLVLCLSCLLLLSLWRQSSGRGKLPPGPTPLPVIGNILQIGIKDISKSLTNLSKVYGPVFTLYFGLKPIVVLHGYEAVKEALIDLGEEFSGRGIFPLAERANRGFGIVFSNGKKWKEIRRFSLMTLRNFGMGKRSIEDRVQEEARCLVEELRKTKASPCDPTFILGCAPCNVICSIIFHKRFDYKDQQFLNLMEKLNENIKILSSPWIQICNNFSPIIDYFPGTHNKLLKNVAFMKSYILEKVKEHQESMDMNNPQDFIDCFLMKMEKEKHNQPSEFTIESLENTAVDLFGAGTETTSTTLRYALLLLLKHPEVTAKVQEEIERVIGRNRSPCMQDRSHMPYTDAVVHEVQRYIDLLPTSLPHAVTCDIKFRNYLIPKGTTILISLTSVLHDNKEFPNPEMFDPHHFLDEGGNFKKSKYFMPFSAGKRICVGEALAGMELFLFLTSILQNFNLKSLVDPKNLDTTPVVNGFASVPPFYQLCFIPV
Method: as §1

CYP2C19 = target: T5, CYP2C19 (Homo sapiens, UniProt P33261); assay: CYP450 enzyme activity inhibition assay, CYP2C19; assay type: in vitro ADME
T5 construct: co-incubated with human liver microsomes; from tissue; host or cells: human liver microsomes
T5 sequence (P33261 whole entry): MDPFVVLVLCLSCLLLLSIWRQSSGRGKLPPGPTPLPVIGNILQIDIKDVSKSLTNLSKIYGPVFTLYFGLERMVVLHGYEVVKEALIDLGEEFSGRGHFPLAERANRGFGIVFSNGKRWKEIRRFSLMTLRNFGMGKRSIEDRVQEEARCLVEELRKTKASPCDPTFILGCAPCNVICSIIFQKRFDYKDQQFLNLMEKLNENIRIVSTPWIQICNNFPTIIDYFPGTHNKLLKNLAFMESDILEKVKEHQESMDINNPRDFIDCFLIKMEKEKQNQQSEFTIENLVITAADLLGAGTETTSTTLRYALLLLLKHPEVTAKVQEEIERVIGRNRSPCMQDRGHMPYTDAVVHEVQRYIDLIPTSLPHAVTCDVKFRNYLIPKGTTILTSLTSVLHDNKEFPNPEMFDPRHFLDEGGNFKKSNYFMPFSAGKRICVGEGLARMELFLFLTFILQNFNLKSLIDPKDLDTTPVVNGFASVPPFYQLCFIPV
Method: as §1

[2] = target: T6, WRN protein (AA N517-P1238, ICE, Cat. S2212T-H56HZ) (Homo sapiens, UniProt Q14191); assay: Assay for WRN helicase activity (FORKF dsDNA unwinding, fluorescence); assay type: biochemical; conditions: inhibition of WRN helicase activity; 10 nM WRN, 10 nM FORKF, 2 mM ATP
T6 construct: WRN protein (AA N517-P1238, ICE, Cat. S2212T-H56HZ); purchased ICE S2212T-H56HZ
T6 sequence (Q14191 517-1238, stated change not applied): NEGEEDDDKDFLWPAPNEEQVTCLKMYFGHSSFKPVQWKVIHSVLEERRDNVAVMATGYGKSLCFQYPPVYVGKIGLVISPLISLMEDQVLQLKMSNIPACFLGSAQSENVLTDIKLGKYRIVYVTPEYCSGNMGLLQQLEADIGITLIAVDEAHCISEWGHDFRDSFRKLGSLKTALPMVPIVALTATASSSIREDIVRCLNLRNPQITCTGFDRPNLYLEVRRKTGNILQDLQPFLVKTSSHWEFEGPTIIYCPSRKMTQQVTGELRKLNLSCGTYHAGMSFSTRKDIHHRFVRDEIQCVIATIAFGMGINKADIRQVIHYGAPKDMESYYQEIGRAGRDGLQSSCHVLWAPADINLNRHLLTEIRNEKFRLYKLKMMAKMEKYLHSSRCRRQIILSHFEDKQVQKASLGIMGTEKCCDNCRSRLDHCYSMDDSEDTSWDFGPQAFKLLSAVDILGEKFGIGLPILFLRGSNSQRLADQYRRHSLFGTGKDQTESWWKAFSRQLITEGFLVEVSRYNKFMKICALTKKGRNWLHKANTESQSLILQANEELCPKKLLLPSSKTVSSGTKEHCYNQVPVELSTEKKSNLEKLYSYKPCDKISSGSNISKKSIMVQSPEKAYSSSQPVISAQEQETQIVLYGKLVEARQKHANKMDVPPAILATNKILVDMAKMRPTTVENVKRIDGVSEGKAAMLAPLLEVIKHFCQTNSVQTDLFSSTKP
Method: The assay buffer working solution prepared with RNAase-free water was as follows: 25 mM Tris (pH 7.5), 2 mM MgCl2, 50 mM NaCl, 0.02% BSA, 0.01% Tween, and 1 mM DTT. WRN protein (AA N517-P1238, ICE, Cat. S2212T-H56HZ) was obtained through protein expression and purification in vitro. Two single-stranded DNAs were synthesized: […]-BHQ2 (quencher), and (fluorophore) TAMRA-[…]. dsDNA (FORKF) was obtained via annealing of the two single-stranded DNAs. When the WRN protein bound to FORKF, the dsDNA was unwound, exposing the fluorophore, thereby generating fluorescence. 2 µL of compounds at different concentrations and 4 µL of WRN protein were added to a 384-well black plate (Greiner, Cat#784075). The plate was pre-incubated at room temperature for 20 minutes. 2 µL each of ATP and the FORKF substrate were added. The working concentrations of the WRN protein, FORKF, and ATP were 10 nM, 10 nM, and 2 mM, respectively. The plate was incubated at room temperature for 20 minutes. After the incubation was completed, the fluorescence value was read at Ex 540 nm/Em 590 nm using a BMG microplate reader (PHERAstar FSX).
The inhibition rate was calculated according to Formula 2, where RLUsample is the readout of the compound well, RLUmax is the readout of the DMSO control well, and RLUmin is the readout of the control well without the WRN protein. Curve fitting was performed via a four-parameter logistic model using GraphPad Prism software, and the IC50 value (the concentration of the compound when the inhibition rate was 50%) was calculated. Inhibition% = (1−(RLUsample−RLUmin)/(RLUmax−RLUmin)) × 100% [formula] Table 2. Results of inhibitory activity of test compounds against WRN helicase activity

T1 sequence (P10635 whole entry): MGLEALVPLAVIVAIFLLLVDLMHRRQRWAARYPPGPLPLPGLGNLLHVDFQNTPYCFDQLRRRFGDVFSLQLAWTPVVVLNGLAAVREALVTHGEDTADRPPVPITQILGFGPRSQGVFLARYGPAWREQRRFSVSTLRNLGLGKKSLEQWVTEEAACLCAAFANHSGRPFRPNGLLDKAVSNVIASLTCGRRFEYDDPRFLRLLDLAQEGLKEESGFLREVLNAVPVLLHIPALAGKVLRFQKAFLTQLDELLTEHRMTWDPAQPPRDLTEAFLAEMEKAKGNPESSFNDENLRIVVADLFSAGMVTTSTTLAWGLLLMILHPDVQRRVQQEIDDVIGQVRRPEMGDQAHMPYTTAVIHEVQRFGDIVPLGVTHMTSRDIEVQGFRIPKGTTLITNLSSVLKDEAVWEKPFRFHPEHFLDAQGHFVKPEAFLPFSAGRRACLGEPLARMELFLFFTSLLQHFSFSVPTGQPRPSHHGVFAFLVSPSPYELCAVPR

| SMILES | IC50 (CYP2D6) [µM] | IC50 (CYP1A2) [µM] | IC50 (CYP3A4) [µM] | pharmacokinetic properties ([1]; result in words) | IC50 (CYP2C9) [µM] | IC50 (CYP2C19) [µM] | IC50 [2] [µM] | AUC(0-t) ([1]; po, mouse plasma, i.g. (10 mg/kg)) [ng·h/mL] | bioavailability ([1]; po, mouse plasma, i.g. (10 mg/kg), read-out: F (%)) [%] | bioavailability ([1]; result in words, in mice) | exposure level ([1]; result in words, in mice) |
| --- | --- | --- | --- | --- | --- | --- | --- | --- | --- | --- | --- |
| Cc1ncnc(C(=O)N2CCN(c3c4n(c5nc(C6=CCOCC6)nn5c3=O)C(C(=O)Nc3ccc(C(F)(F)F)cc3Cl)CCC4)C[C@H]2C)c1O (single isomer, unassigned) [Compound 8-B] | > 30 | > 30 | > 30 | favorable | > 30 | > 30 | < 0.02 |  |  |  |  |
| Cc1ncnc(C(=O)N2CCN(c3c4n(c5nc(C6=CCOCC6)nn5c3=O)[C@@H](C(=O)Nc3ccc(C(F)(F)F)cc3Cl)CCC4)CC2)c1O [Compound 1-B] | > 30 | > 30 | > 30 | favorable | > 30 | > 30 | < 0.02 |  |  |  |  |
| Cc1ncnc(C(=O)N2[C@@H](C)CN(c3c4n(c5nc(C6=CCOCC6)nn5c3=O)[C@@H](C(=O)Nc3ccc(C(F)(F)F)cc3Cl)CCC4)C[C@@H]2C)c1O [Compound 20-A] | > 30 | > 30 | > 30 | favorable | > 30 | > 30 | < 0.02 | 38500 | 93.4 | good | high |
